According to patent US9365588B2, “Benzoxazines as modulators of ion channels” (Vertex Pharmaceuticals Incorporated, priority 2011, dated 2016):

Target: human NaV 1.7 (Homo sapiens, UniProt Q15858)
Experiment: E-VIPR optical membrane potential assay with electrical stimulation
Format: cell-based
Details: sodium channel inhibition; read-out: Binned Activity Data (IC50)
Source text: Assays for Detecting and Measuring NaV Inhibition Properties of Compound E-VIPR Optical Membrane Potential Assay Method with Electrical Stimulation
Sodium channels are voltage-dependent proteins that can be activated by inducing membrane voltage changes by applying electric fields. The electrical stimulation instrument and methods of use are described in Ion Channel Assay Methods PCT/US01/21652, herein incorporated by reference and are referred to as E-VIPR. The instrument comprises a microtiter plate handler, an optical system for exciting the coumarin dye while simultaneously recording the coumarin and oxonol emissions, a waveform generator, a current- or voltage-controlled amplifier, and a device for inserting electrodes in well. Under integrated computer control, this instrument passes user-programmed electrical stimulus protocols to cells within the wells of the microtiter plate.
24 hours before the assay on E-VIPR, HEK cells expressing human NaV subtype, like NaV 1.7, are seeded in 384-well poly-lysine coated plates at 15,000-20,000 cells per well. Other subtypes are performed in an analogous mode in a cell line expressing the NaV of interest. HEK cells are grown in media (exact composition is specific to each cell type and NaV subtype) supplemented with 10% FBS (Fetal Bovine Serum, qualified; GibcoBRL #16140-071) and 1% Pen-Strep (Penicillin-Streptomycin; GibcoBRL #15140-122). Cells are grown in vented cap flasks, in 90% humidity and 10% CO2, to 100% confluence. They are usually split by trypsinization 1:10 or 1:20, depending on scheduling needs, and grown for 2-3 days before the next split.
Bath1 buffer. Glucose 10 mM (1.8 g/L), Magnesium Chloride (Anhydrous), 1 mM (0.095 g/L), Calcium Chloride, 2 mM (0.222 g/L), HEPES 10 mM (2.38 g/L), Potassium Chloride, 4.5 mM (0.335 g/L), Sodium Chloride 160 mM (9.35 g/L).
Hexyl Dye Solution: Bath1 Buffer+0.5% β-cyclodextrin (make this prior to use, Sigma #C4767), 8 μM CC2-DMPE+2.5 μM DiSBAC6(3). To make the solution Add volume of 10% Pluronic F127 stock equal to volumes of CC2-DMPE+DiSBAC6(3). The order of preparation is first mix Pluronic and CC2-DMPE, then add DiSBAC6(3) while vortexing, then add Bath1+β-Cyclodextrin.
1) Pre-spot compounds (in neat DMSO) into compound plates. Vehicle control (neat DMSO), the positive control (20 mM DMSO stock tetracaine, 125 μM final in assay) and test compounds are added to each well at 160× desired final concentration in neat DMSO. Final compound plate volume will be 80 μL (80-fold intermediate dilution from 1 μL DMSO spot; 160-fold final dilution after transfer to cell plate). Final DMSO concentration for all wells in assay is 0.625%.
2) Prepare Hexyl Dye Solution.
3) Prepare cell plates. On the day of the assay, medium is aspirated and cells are washed three times with 100 μL of Bath1 Solution, maintaining 25 μL residual volume in each well.
4) Dispense 25 μL per well of Hexyl Dye Solution into cell plates. Incubate for 20-35 minutes at room temp or ambient conditions.
5) Dispense 80 μL per well of Bath1 into compound plates. Acid Yellow-17 (1 mM) is added and Potassium Chloride can be altered from 4.5 to 20 mM depending on the NaV subtype and assay sensitivity.
6) Wash cell plates three times with 100 μL per well of Bath1, leaving 25 μL of residual volume. Then transfer 25 uL per well from Compound Plates to Cell Plates. Incubate for 20-35 minutes at room temp/ambient condition
7) Read Plate on E-VIPR. Use the current-controlled amplifier to deliver stimulation wave pulses for typically 9 seconds and a scan rate of 400 Hz. A pre-stimulus recording is performed for 0.5 seconds to obtain the un-stimulated intensities baseline. The stimulatory waveform is applied for 9 seconds followed by 0.5 seconds of post-stimulation recording to examine the relaxation to the resting state. […]

Sequence of human NaV 1.7 (Q15858 whole entry): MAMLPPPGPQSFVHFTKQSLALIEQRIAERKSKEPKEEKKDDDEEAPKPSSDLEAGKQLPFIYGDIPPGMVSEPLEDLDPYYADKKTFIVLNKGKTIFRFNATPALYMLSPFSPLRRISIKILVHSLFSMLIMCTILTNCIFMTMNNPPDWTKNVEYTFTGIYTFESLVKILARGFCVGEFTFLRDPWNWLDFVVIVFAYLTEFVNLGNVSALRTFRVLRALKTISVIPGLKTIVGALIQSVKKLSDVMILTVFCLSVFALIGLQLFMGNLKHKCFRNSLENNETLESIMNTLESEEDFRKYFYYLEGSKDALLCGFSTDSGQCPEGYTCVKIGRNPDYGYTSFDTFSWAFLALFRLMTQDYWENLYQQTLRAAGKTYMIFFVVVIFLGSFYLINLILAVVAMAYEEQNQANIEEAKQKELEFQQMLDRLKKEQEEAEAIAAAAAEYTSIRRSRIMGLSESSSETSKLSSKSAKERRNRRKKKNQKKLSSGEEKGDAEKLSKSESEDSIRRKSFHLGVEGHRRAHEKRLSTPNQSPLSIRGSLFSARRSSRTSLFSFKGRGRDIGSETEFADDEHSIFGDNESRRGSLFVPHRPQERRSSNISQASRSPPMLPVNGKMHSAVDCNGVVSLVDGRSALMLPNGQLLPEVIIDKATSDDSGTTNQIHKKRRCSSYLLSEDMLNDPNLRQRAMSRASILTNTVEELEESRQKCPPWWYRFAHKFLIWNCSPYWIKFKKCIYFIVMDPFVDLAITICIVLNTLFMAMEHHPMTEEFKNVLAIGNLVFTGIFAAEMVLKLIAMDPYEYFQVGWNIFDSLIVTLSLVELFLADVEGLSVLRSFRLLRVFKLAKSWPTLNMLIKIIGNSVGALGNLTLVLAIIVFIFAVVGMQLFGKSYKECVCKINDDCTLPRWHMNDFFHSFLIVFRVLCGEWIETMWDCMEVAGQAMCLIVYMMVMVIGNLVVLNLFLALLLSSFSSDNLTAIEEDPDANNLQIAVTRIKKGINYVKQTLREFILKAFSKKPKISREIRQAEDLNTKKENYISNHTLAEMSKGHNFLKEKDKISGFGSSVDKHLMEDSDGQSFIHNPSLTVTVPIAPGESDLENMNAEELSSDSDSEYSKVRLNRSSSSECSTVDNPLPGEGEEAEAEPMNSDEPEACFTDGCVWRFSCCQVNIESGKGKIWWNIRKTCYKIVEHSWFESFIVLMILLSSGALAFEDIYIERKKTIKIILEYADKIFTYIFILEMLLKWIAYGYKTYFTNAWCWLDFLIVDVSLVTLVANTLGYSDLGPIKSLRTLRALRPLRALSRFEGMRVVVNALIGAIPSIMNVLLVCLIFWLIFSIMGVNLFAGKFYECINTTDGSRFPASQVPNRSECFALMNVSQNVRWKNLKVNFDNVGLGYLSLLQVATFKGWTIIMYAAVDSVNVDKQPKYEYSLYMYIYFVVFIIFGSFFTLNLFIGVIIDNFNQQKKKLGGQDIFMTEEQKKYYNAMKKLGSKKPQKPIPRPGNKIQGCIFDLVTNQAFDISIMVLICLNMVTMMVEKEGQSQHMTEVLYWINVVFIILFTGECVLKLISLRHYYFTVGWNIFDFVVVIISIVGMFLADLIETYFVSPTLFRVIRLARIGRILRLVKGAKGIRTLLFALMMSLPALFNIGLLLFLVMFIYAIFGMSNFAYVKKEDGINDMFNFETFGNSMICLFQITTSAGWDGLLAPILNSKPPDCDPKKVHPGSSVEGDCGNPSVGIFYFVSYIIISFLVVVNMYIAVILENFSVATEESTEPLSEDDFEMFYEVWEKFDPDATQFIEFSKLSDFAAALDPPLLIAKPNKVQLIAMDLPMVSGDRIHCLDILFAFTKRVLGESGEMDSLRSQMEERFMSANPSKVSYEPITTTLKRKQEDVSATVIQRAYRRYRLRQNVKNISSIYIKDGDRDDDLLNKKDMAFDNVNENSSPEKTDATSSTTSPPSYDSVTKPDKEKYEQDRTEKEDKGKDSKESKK

| Structure (SMILES) | IC50 [nM] |
| --- | --- |
| COc1cc(C(=O)N2CCC3(CC2)Oc2cc(Cl)ccc2-n2cccc23)ccc1C(C)(C)CO [Compound 417] | ≤ 2000 |
| CC(C)Oc1ccc(C(=O)N2CCC3(CC2)Oc2ccccc2-n2c3ccc2S(C)(=O)=O)cc1CO [Compound 296] | ≤ 2000 |
| CCc1ccc(C(=O)N2CCC3(CC2)Oc2ccccc2-n2c(C#N)ccc23)cc1OC [Compound 839] | ≤ 2000 |
| Cn1cc2c(n1)-c1cc(F)ccc1OC21CCN(C(=O)c2ccc(C(C)(C)O)cc2)CC1 [Compound 486] | ≤ 2000 |
| COc1cc(C(=O)N2CCC3(CC2)Oc2cc(Cl)ccc2-n2cccc23)ccc1CCO [Compound 635] | ≤ 2000 |
| C[C@](O)(CO)c1ccc(C(=O)N2CCC3(CC2)Oc2ccccc2-n2c(C(F)(F)F)ccc23)cc1 [Compound 231] | > 5000 |
| COc1cc(C(=O)N2CCC3(CC2)Oc2ccccc2-n2c(C#N)ccc23)ccc1OC[C@H](O)CO [Compound 398] | 2000 to 5000 |
| Cn1ncc2c1-c1ccccc1OC21CCN(C(=O)c2ccc(C3(O)COC3)cc2)CC1 [Compound 418] | 2000 to 5000 |
| CC(C)Oc1ccc(C(=O)N2CCC3(CC2)Oc2cc(C#N)ccc2-n2cccc23)cc1 [Compound 208] | ≤ 2000 |
| COCCOc1ccc(C(=O)N2CCC3(CC2)Oc2ccccc2-n2c(C(C)=O)ccc23)cc1OC [Compound 820] | ≤ 2000 |
| COC[C@H](C)Oc1ccc(C(=O)N2CCC3(CC2)Oc2ccccc2-n2cccc23)cc1C(F)(F)F [Compound 95] | ≤ 2000 |
| Cc1cc(C(=O)N2CCC3(CC2)Oc2cc(C#N)ccc2-n2cccc23)ccc1OC(C)C [Compound 338] | ≤ 2000 |
| Cc1cc(C)cc(C(=O)N2CCC3(CC2)Oc2cc(Cl)ccc2-n2cccc23)c1 [Compound 222] | ≤ 2000 |
| Cc1ccc(C(=O)N2CCC3(CC2)Oc2ccccc2-n2cccc23)cc1C [Compound 159] | ≤ 2000 |
| CCCOc1ccc(C(=O)N2CCC3(CC2)Oc2ccccc2-c2c3cnn2C)cc1C [Compound 709] | ≤ 2000 |
| Cc1cc(C(=O)N2CCC3(CC2)Oc2ccccc2-c2c3ncn2C)ccc1OC(C)C [Compound 583] | ≤ 2000 |
| CCc1ccc(C(=O)N2CCC3(CC2)Oc2cc(F)ccc2-n2cccc23)cc1C [Compound 377] | ≤ 2000 |
| Cn1ncc2c1-c1ccccc1OC21CCN(C(=O)c2csc(-c3ccccc3)n2)CC1 [Compound 331] | > 5000 |
| COc1cc(C(=O)N2CCC3(CC2)Oc2ccccc2-n2cccc23)ccc1OC(C)(C)C#N [Compound 570] | ≤ 2000 |

| Structure (SMILES) | IC50 [nM] |
| --- | --- |
| CCn1ncc2c1-c1cc(F)ccc1OC21CCN(C(=O)c2ccccc2OC)CC1 [Compound 674] | 2000 to 5000 |
| Cc1c(CO)cccc1C(=O)N1CCC2(CC1)Oc1ccccc1-c1c2cnn1C [Compound 746] | 2000 to 5000 |
| CC(C)(CO)c1ccc(C(=O)N2CCC3(CC2)Oc2cc(Cl)ccc2-n2cccc23)cc1F [Compound 103] | ≤ 2000 |
| O=C(c1ccccc1)N1CCC2(CC1)Oc1ccccc1-n1cccc12 [Compound 241] | > 5000 |
| CC(C)Oc1ccc(C(=O)N2CCC3(CC2)Oc2ccccc2-n2c(C#N)ccc23)c(F)c1 [Compound 318] | ≤ 2000 |
| CC(C)n1ncc2c1-c1ccccc1OC21CCN(C(=O)c2ccc(S(=O)(=O)C(C)C)cc2)CC1 [Compound 594] | ≤ 2000 |
| Cc1nc(C(=O)N2CCC3(CC2)Oc2ccccc2-c2nn(C)cc23)ccc1OC(C)C [Compound 262] | ≤ 2000 |
| CC(C)S(=O)(=O)c1ccc(C(=O)N2CCC3(CC2)Oc2ccccc2-n2c(C(F)(F)F)ccc23)nc1 [Compound 881] | ≤ 2000 |
| Cc1cc(C(=O)N2CCC3(CC2)Oc2ccccc2-c2c3c(C)nn2C)ccc1OC(C)C [Compound 274] | ≤ 2000 |
| CC(C)(Oc1ccc(C(=O)N2CCC3(CC2)Oc2ccccc2-n2c(C#N)ccc23)cc1)C(=O)O [Compound 334] | > 5000 |
| Cc1cc(C(C)(C)O)ccc1C(=O)N1CCC2(CC1)Oc1ccccc1-n1c(C#N)ccc12 [Compound 633] | ≤ 2000 |
| C[S+]([O-])c1ccc(C(=O)N2CCC3(CC2)Oc2ccccc2-n2c(C#N)ccc23)cc1C(F)(F)F (stereo not drawn) [Compound 684] | ≤ 2000 |
| COc1ccc(C(=O)N2CCC3(CC2)Oc2cc(Cl)ccc2-n2c(C#N)ccc23)cc1C(F)(F)F [Compound 392] | ≤ 2000 |
| COCCOc1ccc(C(=O)N2CCC3(CC2)Oc2ccccc2-c2c3cnn2C)cc1OC [Compound 420] | ≤ 2000 |
| Cn1ncc2c1-c1ccccc1OC21CCN(C(=O)c2ccc(S(=O)(=O)NC3CC3)cc2)CC1 [Compound 243] | ≤ 2000 |
| CC(=O)c1ccc2n1-c1ccccc1OC21CCN(C(=O)c2ccc(OC(C)C)c(C)c2)CC1 [Compound 171] | ≤ 2000 |
| COCCOc1ccc(C(=O)N2CCC3(CC2)Oc2ccccc2-c2c3cnn2C)cc1C [Compound 761] | ≤ 2000 |
| CCOc1ccc(C(=O)N2CCC3(CC2)Oc2ccccc2-c2c3cnn2C)cc1OC [Compound 866] | ≤ 2000 |
| Cn1cc2c(n1)-c1ccccc1OC21CCN(C(=O)c2ccc(C(C)(C)O)cc2)CC1 [Compound 230] | ≤ 2000 |

| Structure (SMILES) | IC50 [nM] |
| --- | --- |
| O=C(c1ccc(S(=O)(=O)NC2CC2)cc1)N1CCC2(CC1)Oc1ccccc1-n1c(C(F)(F)F)ccc12 [Compound 541] | ≤ 2000 |
| Cn1ncc2c1-c1ccccc1OC21CCN(C(=O)c2ccc(N3CCCCC3)nc2)CC1 [Compound 104] | > 5000 |
| COc1cc(C(=O)N2CCC3(CC2)Oc2ccccc2-n2cccc23)ccc1OC[C@H](C)OC [Compound 48] | ≤ 2000 |
| COc1cccc(Cl)c1C(=O)N1CCC2(CC1)Oc1ccccc1-c1c2cnn1C [Compound 299] | > 5000 |
| N#Cc1ccc2n1-c1ccccc1OC21CCN(C(=O)c2cccc(F)c2OC(F)F)CC1 [Compound 125] | ≤ 2000 |
| Cc1cc(C(=O)N2CCC3(CC2)Oc2ccccc2-c2ncn(C)c23)ccc1OC(C)C [Compound 525] | ≤ 2000 |
| CC(C)(CO)S(=O)(=O)c1ccc(C(=O)N2CCC3(CC2)Oc2ccccc2-n2c(C(F)(F)F)ccc23)cc1 [Compound 685] | 2000 to 5000 |
| CCc1ccc(C(=O)N2CCC3(CC2)Oc2cc(Cl)ccc2-n2cccc23)cc1C [Compound 55] | ≤ 2000 |
| COc1cc(C(=O)N2CCC3(CC2)Oc2cc(Cl)ccc2-n2cccc23)ccc1OC[C@H]1COC(C)(C)O1 [Compound 759] | ≤ 2000 |
| Cc1nc2c(C(=O)N3CCC4(CC3)Oc3ccccc3-c3c4cnn3C)cccc2[nH]1 [Compound 92] | 2000 to 5000 |
| Cc1ccc(C(=O)N2CCC3(CC2)Oc2ccccc2-n2c(C(F)(F)F)ccc23)nc1 [Compound 566] | > 5000 |
| COc1c(CO)cccc1C(=O)N1CCC2(CC1)Oc1ccccc1-c1c2cnn1C [Compound 853] | ≤ 2000 |
| Cn1ncc2c1-c1ccccc1OC21CCN(C(=O)c2ccc(S(=O)(=O)C(C)(C)C)cc2)CC1 [Compound 643] | 2000 to 5000 |
| Cc1cc(C(=O)N2CCC3(CC2)Oc2cc(Cl)ccc2-c2c3cnn2C)ccc1OC(C)C [Compound 370] | ≤ 2000 |
| Cc1nc2cccc(C(=O)N3CCC4(CC3)Oc3ccccc3-c3c4cnn3C)c2o1 [Compound 224] | ≤ 2000 |
| Cc1cc(C(=O)N2CCC3(CC2)Oc2cc(F)ccc2-n2cccc23)ccc1C#N [Compound 215] | ≤ 2000 |
| COc1cc(C(=O)N2CCC3(CC2)Oc2cc(F)ccc2-n2cccc23)ccc1OC1CCC(O)C1 (stereo not drawn) [Compound 196] | ≤ 2000 |
| CCn1ncc2c1-c1cc(F)ccc1OC21CCN(C(=O)c2ccc(OC(C)C)c(OC)c2)CC1 [Compound 742] | 2000 to 5000 |
| Cc1cc(C(=O)N2CCC3(CC2)Oc2cccnc2-c2c3cnn2C)ccc1OC(C)C [Compound 271] | > 5000 |
